A value given as a limit tells only on which side of the number the result lay.

By Solubility is commonly meant how much of the substance goes into solution per volume.

Series [1] in a line: pH of solution in pure water. It counts as physicochemical.
The nature of series [2]: Time required for oxidation by air to regenerate the quinone form. The class given is physicochemical. Particulars: 38° C., leucoanthraquinonesulfonate 0.04 mol/l, NaOH 0.08 mol/l. The protocol: (§1) Easiness in oxidation-reduction of these compounds is evaluated by their standard oxidation-reduction potential and their oxidation and reduction rates.
**Air was absorbed at 38° C. in an aqueous solution containing a
given leucoanthraquinonesulfonate (0.04 mol/l) and sodium hydroxide (0.08
mol/l) under agitation whereby the time required for finishing the
airabsorption was measured.

Series [3] in a line: Time required for being reduced to the leuco form by sodium vanadite. It counts as physicochemical. The conditions noted are these: 38° C., nitrogen, sodium vanadite 0.02 mol/l, anthraquinonesulfonate 0.04 mol/l, NaOH 0.04 mol/l. The protocol:
as §1

The nature of series [4]: Solubility (g/l, 25° C.) in alkaline inorganic salt solutions and water. Particulars: for Solubility: 25° C.
The nature of series [5]: Standard oxidation-reduction potential Eo. The conditions noted are these: for Standard oxidation-reduction potential Eo: 25° C.; for oxidation-reduction characteristics compared with anthraquinone-2,7-disulfonate (in words): from Table 2 (reaction rates and Eo). It counts as physicochemical. Here is the method: as §1
The nature of series [6]: Test for absorbing hydrogen sulfide according to the Stretford process (wet desulfurization).
Description: In view of the solubility and oxidation-reduction characteristics above described, the anthraquinone compounds of the general formulas (I) and (II) are expected to exert an equivalent performance to anthraquinone-2,7-disulfonate as an oxidation-reduction reagent used for the Stretford process. […] The results of the test are given in Examples 11-17. The compounds of the general formulas (I) and (II) exerted in the Stretford process an equivalent desulfurization performance to anthraquinone-2,7-disulfonates. In other words, these anthraquinone compounds are quite equivalent to or somewhat better than anthraquinone-2,7-disulfonate in elimination rate of hydrogen sulfide (desulfurization ratio), a conversion rate of the absorbed hydrogen sulfide to elemental sulfur and a concentration of the residual hydrogen sulfide in the refined gas.
(§2) An absorption column was prepared by charging a glass tube (with a jacket) of 10 cm in inner diameter and 100 cm in length with a basket type filler of polypropylene (Tellerette S available from Nittetsu Kakoki KK, Japan) with a diameter of 1 cm up to a height of 95 cm. A hydrogen sulfide-containing gas prepared by mixing a gas composed of 6% carbon dioxide and 94% nitrogen with hydrogen sulfide in an amount of 5 g/Nm^2 was introduced at a flow rate of 230 l/hr. into the absorption column from the bottom thereof. On the other hand, an alkaline aqueous solution containing 0.03 mol/l of sodium metavanadate and 0.005 mol/l of sodium 2-carboxyanthraquinonemonosulfonate, which had been adjusted to have a pH value of 9 by addition of sodium carbonate and was kept at 40° C. was sprayed at a rate of 4.6 l/hr. into the absorption column from the top thereof whereby the hydrogen sulfide-containing gas was brought in the column into contact with the alkaline aqueous solution.
A gas/liquid ratio in this case was 0.02. From the lower part of the absorption column, the liquid was discharged and conveyed into a regeneration column made of a glass tube (with a jacket) of 10 cm in inner diameter and 100 cm in length where elementary sulfur was completely precipitated from the liquid by blowing air thereinto. A residence time of the liquid in the regeneration column was 20 minutes.
as §2, with “lenght” for “length”, “S)” for “S available from Nittetsu Kakoki KK, Japan)”, “g/Nm^3” for “g/Nm^2”, “2-phenoxyanthraquinonetrisulfonate,” for “2-carboxyanthraquinonemonosulfonate,”, “solution. A gas/liquid ratio in this case was 0.02. From the lower part of the absorption column, the liquid was discharged and conveyed into a regeneration column made of a glass tube (with a jacket) of 10 cm in inner diameter and 100 cm in length where elementary sulfur was completely precipitated from the liquid by blowing air thereinto. A residence time of the liquid in the regeneration column was 20 minutes.” for “solution.”
An absorption column was prepared by charging a glass tube (with a jacket) of 10 cm in inner diameter and 100 cm in length with a basket type filler of polypropylene (Tellerett S) with a diameter of 1 cm up to a height of 95 cm. […]

For series [7] the following is noted: basic aqueous solution used in the Stretford process; background statement; cited from earlier work.
Setting [8] is: 20g Na2 CO3 + 300g Na2 S2 O3 in 1 liter of water.
Where [9] appears, read: 20g Na2 CO3 + 300g NaSCN in 1 liter of water.
[10] abbreviates: Mixed aqueous solution: 20 g/l sodium carbonate, 50 g/l sodium sulfate, 100 g/l sodium thiosulfate, 150 g/l sodium thiocyanate.
Where [11] appears, read: Examples 11-12: 0.005 mol/l reagent, 0.03 mol/l sodium metavanadate, pH 9, 40° C., H2S gas 230 l/hr, liquid 4.6 l/hr.
The mark [12] stands for this setting: Example 17: same manner as described in Example 13 (so in the source).
[13] abbreviates: Examples 13-15: 0.005 mol/l reagent, 0.03 mol/l sodium metavanadate, pH 9, 40° C., H2S gas 5 g/Nm^3, 230 l/hr.
Setting [14] is: practical use, Stretford process.

Regarding “sodium 2-carboxyanthraquinonemonosulfonate”, the “pH of the solution” value in series [1] is listed as 3-4. Besides, the “Time required for oxidation to regenerate the quinone form” value (“Time required for oxidation” below) in series [2] is 15 min. In addition, in series [3], the “Time required for reduction to the leuco form” value (“Time required for reduction” for short) came out at 5 min. In addition, the Solubility came to 38 mg/mL in series [4] (setting [8]), 25 mg/mL in series [4] (setting [9]), 15 mg/mL in series [4] (setting [10]) and 12 mg/mL in series [4] (Water). Moreover, the “solubility as disodium salt” value in series [4] (neutral or weakly alkaline solution, as disodium salt) was at least 200 mg/mL. The “Standard oxidation-reduction potential Eo” value in series [5] was found to be 0.29 V. Moreover, the “oxidation-reduction characteristics compared with anthraquinone-2,7-disulfonate (in words)” value (“oxidation-reduction characteristics” for short) in series [5] is reported as “very similar in oxidation-reduction characteristics to sodium anthraquinone-2,7-disulfonate”. Besides, the “quantity of sulfur recovered, % of hydrogen sulfide contained in the feed gas” value in series [6] (Example 11: 0.005 mol/l reagent, 0.03 mol/l sodium metavanadate, pH 9, 40° C.) is 97%. Besides, the desulfurization ratio in series [6] (setting [11]) is at least 99.7%.

As to “sodium 2-carboxyanthraquinonetetrasulfonate”, the desulfurization ratio result in series [6] (setting [12]) is reported as “at least 99.7%”.

Regarding “ammonium 2-carboxyanthraquinonemonosulfonate”, the desulfurization ratio entry in series [6] (setting [11]) is “at least 99.7%”.

With “potassium 2-phenoxyanthraquinonetetrasulfonate”, the desulfurization ratio result in series [6] (setting [13]) is “at least 99.7%”.

In the case of `O=C1c2ccc(S(=O)(=O)[O-])cc2C(=O)c2ccc(S(=O)(=O)[O-])cc21.[Na+].[Na+]` [reference compound], the Solubility in series [4] (setting [8]) was below 1 mg/mL; in series [4] (setting [9]), below 1 mg/mL; in series [4] (setting [10]), below 1 mg/mL; in series [4] (Water), 39 mg/mL.

In the case of “ammonium 2-phenoxyanthraquinonetetrasulfonate”, the desulfurization ratio result in series [6] (setting [13]) was “at least 99.7%”.

In the case of “potassium 2-carboxyanthraquinonemonosulfonate”, the desulfurization ratio result in series [6] (setting [11]) is “at least 99.7%”.

For the compound `O=C1c2ccc(S(=O)(=O)O)cc2C(=O)c2ccc(S(=O)(=O)O)cc21` [anthraquinone-2,6-disulfonic acid], the “solubility (in words)” value in series [7] was “very poor solubility”.

Consider “potassium 2-phenoxyanthraquinonetrisulfonate”, for which the desulfurization ratio entry in series [6] (setting [13]) was “at least 99.7%”.

As to “sodium 2-phenoxyanthraquinonetrisulfonate”, the “Time required for oxidation” value in series [2] amounted to 15 min. Besides, in series [3], the “Time required for reduction” value came to 5 min. Besides, the Solubility in series [4] (setting [8]) was above 200 mg/mL; in series [4] (setting [9]), above 100 mg/mL; in series [4] (setting [10]) it was above 100 mg/mL; in series [4] (Water), above 400 mg/mL. For the same compound, the “Standard oxidation-reduction potential Eo” value in series [5] is given as 0.27 V. For the same compound, the “oxidation-reduction characteristics” value in series [5] is “very similar in oxidation-reduction characteristics to sodium anthraquinone-2,7-disulfonate”. Also, the “quantity of sulfur recovered, % of hydrogen sulfide contained in the feed gas” value in series [6] (Example 13: 0.005 mol/l reagent, 0.03 mol/l sodium metavanadate, pH 9, 40° C.) is reported as 97%. Further, the desulfurization ratio entry was “at least 99.7%” in series [6] (setting [12]) and at least 99.7% in series [6] (setting [13]).

On to `O=C1c2ccc(S(=O)(=O)[O-])cc2C(=O)c2cc(S(=O)(=O)[O-])ccc21.[Na+].[Na+]` [reference compound], for which the “Time required for oxidation” value in series [2] came out at 15 min. In addition, in series [3], the “Time required for reduction” value was 5 min. The Solubility in series [4] (setting [8]) was 10 mg/mL; in series [4] (setting [9]) it was 8 mg/mL; in series [4] (setting [10]), 5 mg/mL; in series [4] (Water), 305 mg/mL. In addition, the “Standard oxidation-reduction potential Eo” value in series [5] was 0.29 V. Moreover, the desulfurization ratio in series [6] (setting [11]) was 99.6%.

Turning to “Sodium 2-phenoxyanthraquinonetetrasulfonate”, the “Time required for oxidation” value in series [2] worked out at 15 min. The “Time required for reduction” value in series [3] was 5 min. Further, the Solubility was above 300 mg/mL in series [4] (setting [8]), above 200 mg/mL in series [4] (setting [9]), above 200 mg/mL in series [4] (setting [10]) and above 600 mg/mL in series [4] (Water). Further, in series [5], the “Standard oxidation-reduction potential Eo” value worked out at 0.28 V. Also, the “oxidation-reduction characteristics” value in series [5] is “very similar in oxidation-reduction characteristics to sodium anthraquinone-2,7-disulfonate”. In addition, the desulfurization ratio result in series [6] (setting [13]) was “at least 99.7%”.

As to `O=C1c2ccccc2C(=O)c2cc(Oc3ccc(S(=O)(=O)O)cc3S(=O)(=O)O)ccc21` [sodium 2-phenoxyanthraquinone-2',4'-disulfonate, reference compound], the standard oxidation-reduction potential in series [5] (temperature not given) came to 0.21 V. Besides, in series [6] (Stretford process), the “suitability for use in the Stretford process (in words)” value is recorded as “unsuited for use in the Stretford process”. Besides, in series [6] (setting [14]), the “capturing rate for hydrogen sulfide (in words)” value was “inferior” and the “oxidation efficiency of hydrogen sulfide to elemental sulfur (in words)” value was “inferior”.

The record behind these values is patent US4342700A, “Oxidation-reduction reagents for a wet desulfurization process and a process for preparing same” (Mitsui Toatsu Chemicals, Inc., priority 1978, dated 1982).
